From US20040019026A1, “Compounds useful for treating hypertriglyceridemia” (priority 2000, published 2004) come the findings set out here.

For one data set, the system named is Female CD-1 mice. Briefly: Dexamethasone-induced thymic and splenic atrophy, anti-glucocorticoid effect (Example 4). Conditions: for Spleen Wt. / Thymus Wt.: no DEX. In kind it is in vivo. As for the experimental part: Female CD-1 mice were obtained from Charles River Laboratories, Kingston, N.Y. at 43-45 days of age. The mice were housed five per cage in plastic shoebox cages on corn cob bedding in the Fels Animal Facility at 72°±2° F. with 50%±5% humidity and twelve hours of alternate light and darkness. The mice had ad libitum access to Purina chain 5015 and acidified water for pretreatment.
Six days later, the mice were weighed, earmarked and redistributed into six groups for treatment: 1) a control group, 2) a group treated with dexamethasone (“DEX”), a glucocorticoid which induces thymic and splenic atrophy, 3) a group treated with 200 mg/kg 16α-fluoro-5-androsten-17-one (hereinafter “drug”), 4) a group treated with 400 mg/kg of, 5) a group treated with dexamethasone and 200 mg/kg drug and 6) a group treated with dexamethasone and 400 mg/kg drug. The treatment in the groups were as follows and were conducted simuitaneously.
The control group was intubated with 0.2 mL of sesame oil for three days. On the third day after commencement of the intubation, the mice were injected subcutaneously with 0.05 mL of absolute ethanol one hour after the last treatment with sesame oil.
The second group was intubated with 0.2 mL of sesame oil for three days. On the third day after the commencement of the intubation, the mice were injected subcutaneously with 1.6 mg of dexamethasone dissolved in 0.05 mL of absolute ethanol approximately one hour after the last treatment with sesame oil.
The third and fourth groups were intubated with 200 mg/Kg and 400 mg/Kg drug, respectively, suspended in 0.2 mL of sesame oil for three days. After commencement of the intubation, the mice were injected subcutaneously with 0.05 mL of absolute ethanol approximately one hour after the last treatment with sesame oil.
The fifth and sixth groups were intubated with 200 mg/kg and 400 mg/kg, respectively, of drug, suspended in 0.2 mL of sesame oil for three days. On the third day after commencement of the intubation, the mice were injected subcutaneously with 1.6 mg of dexamethasome dissolved in 0.05 mL of absolute ethanol approximately one hour after the last treatment with sesame oil.
All of the mice were sacrificed by an overdose of CO2 approximately 24 hours after the injection of ethanol (first, third and fourth groups) or approximately 24 hours after injection with dexamethasone (second, fifth and sixth groups). The mice were weighed and the thymus was excised, cleaned of adventia, rinsed in phosphate-buffered saline (P.B.S.), blotted and weighed. The spleen was also excised, cleaned, rinsed, blotted and weighed.

The test system of data set [1] is patients with rheumatoid arthritis. The data set can be described thus: Trial in arthritis patients, 1200 mg oral fluasterone daily: HDL levels (Example 5b). The class given is in vivo, human. As for the experimental part:
In this trial patients with rheumatoid arthritis were treated for 3 to 12 weeks with 1200 mg oral fluasterone daily. A placebo group was also included.

For data set [2] the test system is unchanged. The data set can be described thus: Oral fluasterone in rheumatoid arthritis patients, obese vs non-obese: triglycerides (Example 6). In kind it is in vivo, human. As for the experimental part: In this clinical trial oral fluasterone (1200 mg) was administered daily to patients with rheumatoid arthritis for 3 to 12 weeks. Nine patients had baseline triglyceride levels 200 mg/dL. These patients were divided into obese (BMI>30) and non-obese (BMI<30) groups. […] However, the conclusion would be the same without the addition of this patient.
The baseline levels was the mean value of week −2, 0 and the treatment levels were the last values obtained (week 3 to 12) for each patient. The obese patients has a BMI of 36.6±4.0 and the non-obese a BMI of 27.1±1.5.

[3] abbreviates: 200 mg/kg drug intubated for three days.
Setting [4] is: 400 mg/kg drug intubated for three days.

“And” between values parts separate entries of the source, which are not always exact repeats. Equal values may be shown once.

With `C[C@]12CCCCC1=CC[C@@H]1[C@@H]2CC[C@]2(C)C(=O)[C@H](F)C[C@@H]12` [fluasterone, 16α-fluoro-5-androsten-17-one], the “Spleen Wt.” value is 103.5 ± 9.2 mg in the data set on Female CD-1 mice (setting [3]) and 129.4 ± 17.9 mg in the data set on Female CD-1 mice (setting [4]). The “Thymus Wt.” value in the data set on Female CD-1 mice (setting [3]) was determined as 65.0 ± 5.8 mg; with Female CD-1 mice (setting [4]) it was 74.3 ± 7.1 mg. Further, in the data set on Female CD-1 mice (400 mg/kg), the “Effect on dexamethasone-induced thymic and splenic atrophy” value was “significantly reduced dexamethasone-induced thymic and splenic atrophy”. In addition, the “HDL Levels” value was 57.4 ± 14.7 in data set [1] (Combined (20), pretreatment); 46.9 ± 8.9 in data set [1] (Combined, treatment 1200 mg oral daily, 3 to 12 weeks, p < 0.02); 59.8 ± 14.6 (16) in data set [1] (Females (16), pretreatment); 46.8 ± 9.6 in data set [1] (Females, treatment 1200 mg oral daily, 3 to 12 weeks, p < 0.01); 47.0 ± 9.1 (4) in data set [1] (Males (4), pretreatment); 47.0 ± 5.8 (4) in data set [1] (Males (4), treatment 1200 mg oral daily, 3 to 12 weeks). For the same compound, in data set [2] (1200 mg oral daily, p=0.0113, group effect), the “Decline in triglyceride level, obese vs non-obese” value is listed as “significantly greater decline in triglyceride level than the non-obese”. Further, the “Triglycerides (mean ± S.D.)” value in data set [2] (Non-obese (BMI<30), baseline (mean of week −2, 0)) was 310 mg/dL and 330 ± 163 (10) mg/dL; in data set [2] (Non-obese (BMI<30), treatment 1200 mg oral daily, last value (week 3 to 12)) it was 248 ± 89.8 (5) mg/dL; in data set [2] (Obese (BMI>30), baseline (mean of week −2, 0)) it was 232 mg/dL and 231 ± 57.1 (10) mg/dL; in data set [2] (Obese (BMI>30), treatment 1200 mg oral daily, last value (week 3 to 12)), 135 ± 12.1 (5) mg/dL.
